We go through 28 molecules from patent publication US4900729A, “Thieno-1,4-diazepines” (Boehringer Ingelheim KG, priority 1986, dated 1990).

One series relates to human thrombocytes (PAF-induced aggregation). Nature of the series: inhibition of PAF-induced aggregation of human thrombocytes in vitro. Type of series: cell-based. The following applies: Homo sapiens, PAF-induced aggregation, read-out: IC50 (concentration for a 50% inhibition of aggregation). The procedure:
The PAF-antagonistic activity of some compounds of formula I was investigated by means of the inhibition of blood platelet aggregation in vitro and the antagonising of the PAF-induced bronchoconstriction in anaesthetised guinea pigs, the lowering of blood pressure in anaesthetised rats and skin wheals in rats. Moreover, these compounds were tested for any possible side effects on the central nervous system.
1. In vitro tests: inhibition of blood platelet aggregation
In order to determine the PAF-antagonistic activity of substances, the PAF-induced aggregation of human thrombocytes in vitro was used. In order to obtain thrombocyte-rich plasma (TRP) blood was taken from an unconstricted vein using a plastic syringe containing 3.8% of sodium citrate solution. The ratio of sodium citrate solution to blood was 1:9. After careful mixing, the citrated blood was centrifuged for 20 minutes at 150×g (1200 rpm). The thrombocyte aggregation was measured using the method developed by Born and Cross (G. V. R. Born and M. J. Cross, J. Physiol. 168, 178 (1963)), in which PAF is added to the TRP with constant stirring in order to initiate aggregation.
The test substance is added 2 to 3 minutes before aggregation is induced, in a volume of 10 μl. The solvent used is either distilled water, ethanol and/or dimethylsulphoxide. The controls were given corresponding volumes of this solvent. After the initial absorption had been recorded (2 to 3 minutes) aggregation was induced with PAF (5×10^-8 M).
The maximum of the first aggregation wave is used to assess the effects of the substance. The PAF-induced maximum absorption rate (=maximum aggregation×100%) is simultaneously tested in a parallel mixture (=control mixture in one of the channels of the 2-channel aggregometer) with each test batch (second channel) and is used as the 100% value.
The level of aggregation achieved under the effect of the […] is given […].
Each test substance is tested at concentrations of from 10^-3 to 10^-8 M with a random sampling range of n=4 in order to investigate an inhibiting effect on the PAF-induced thrombocyte aggregation. A concentration-activity curve is then plotted using 3 concentrations and the IC50 is determined (concentration for a 50% inhibition of aggregation). The IC values of compounds of general formula I are generally around levels of less than 9 μM.
For the molecule `Cc1nnc2n1-c1ccc(Cl)cc1C(c1ccccc1Cl)=NC2` [Triazolam, triazolam, reference compound], the IC50 turned out to be 9000 nM.

The series is the same for the next values; noted with them: PAF-induced aggregation, read-out: IC50 (concentration for a 50% inhibition of aggregation).
With `Cc1nnc2n1-c1ccc(Cl)cc1C(c1ccccc1)=NC2` [Alprazolam, alprazolam, reference compound], the IC50 was 14000 nM.

The same series, now with this note: Platelet, Table A, PAF 5×10^-8 M, human thrombocyte-rich plasma, read-out: IC50 (inhibition of blood platelets).
As for `Cc1nnc2n1-c1sc(CCS(=O)(=O)N3CCN(C)CC3)cc1C(c1ccccc1Cl)=NC2` [Example 1, 2-[4-(2-Chlorophenyl)-9-methyl-6H-thieno[3,2-f][1,2,4]triazolo[4,3-a][1,4]diazepin-2-yl]-ethane-1-sulphonic acid-N'-methylpiperazide], the IC50 amounted to 300 nM.

For the molecule `CC(=O)OCCCc1cc2c(s1)-n1c(C)nnc1CN=C2c1ccccc1Cl` [Example 2, 3-[4-(2-Chlorophenyl)-9-methyl-6H-thieno[3,2-f][1,2,4]triazolo[4,3-a][1,4]diazepin-2-yl]propyl acetate], the IC50 is < 200 nM.

Consider `CC(=O)OCCCCCCCc1cc2c(s1)-n1c(C)nnc1CN=C2c1ccccc1Cl` [Example 4, 7-[4-(2-Chlorophenyl)-9-methyl-6H-thieno[3,2-f][1,2,4]triazolo[4,3-a][1,4]diazepin-2-yl]heptyl acetate], for which the IC50 is < 200 nM.

With `Cc1nnc2n1-c1sc(CCCCCCCN3C(=O)c4ccccc4C3=O)cc1C(c1ccccc1Cl)=NC2` [Example 8, 2-(7-N-Phthalimidoheptyl)-4-(2-chlorophenyl)-9-methyl-6H-thieno[3,2-f][1,2,4]triazolo[4,3-a][1,4]-diazepine], the IC50 was < 300 nM.

Turning to `Cc1nnc2n1-c1sc(CCCCCCCN)cc1C(c1ccccc1Cl)=NC2` [Example 9, 2-(7-Amino-heptyl)-4-(2-chlorophenyl)-9-methyl-6H-thieno[3,2-f][1,2,4]triazolo[4,3-a][1,4]diazepine], the IC50 worked out at 200 nM.

On to `CC(=O)NCCCCCCCc1cc2c(s1)-n1c(C)nnc1CN=C2c1ccccc1Cl` [Example 10, 2-(7-Acetylaminoheptyl)-4-(2-chlorophenyl)-9-methyl-6H-thieno[3,2-f][1,2,4]triazolo[4,3-a][1,4]diazepine], for which the IC50 amounted to 1700 nM.

`Cc1nnc2n1-c1sc(CCCN3CCOCC3)cc1C(c1ccccc1Cl)=NC2` [Example 11, 2-(3-(N-Morpholinyl)propyl)-4-(2-chlorophenyl)-9-methyl-6H-thieno[3,2-f][1,2,4]triazolo[4,3-a][1.4]-diazepine]: the IC50 is < 200 nM.

Consider `Cc1nnc2n1-c1sc(CCCCCCC=O)cc1C(c1ccccc1Cl)=NC2` [Example 12, 2-(6-Formylhexyl)-4-(2-chlorophenyl)-9-methyl-6H-thieno[3,2-f][1,2,4]triazolo[4,3-a][1,4]diazepine], for which the IC50 was found to be 300 nM.

`CC(=O)OCCCc1cc2c(s1)-n1c(Br)nnc1CN=C2c1ccccc1Cl` [Example 13, 2-(3-Acetoxypropyl)-4-(2-chlorophenyl)-9-bromo-6H-thieno[3,2-f][1,2,4]triazolo[4,3-a][1,4]diazepine]: the IC50 worked out at 300 nM.

Regarding `Cc1nnc2n1-c1sc(CC(C)C(=O)N3CCOCC3)cc1C(c1ccccc1Cl)=NC2` (stereo not shown) [Example 14i, 2-[2-(Morpholin-4-yl-carbonyl)-n-propyl]-4-(2-chlorophenyl)-9-methyl-6H-thieno[3,2-f][1,2,4]triazolo[4,3-a][1,4]diazepine], the IC50 turned out to be 400 nM.

Regarding `Cc1nnc2n1-c1sc(CCCN3CCOCC3)cc1C(c1ccccc1Cl)NC2` (stereo not shown) [Example 14l, 2-[3-(N-Morpholinyl)-n-propyl]-4-(2-chlorophenyl)-9-methyl-4,5-dihydro-6H-thieno[3,2-f][1,2,4]triazolo-[4,3-a][1,4]diazepine], the IC50 came to 600 nM.

`Cc1nnc2n1-c1sc(CCS(=O)(=O)N3CCOCC3)cc1C(c1ccccc1Cl)=NC2` [Example 20]: the IC50 was determined as 300 nM.

On to `Cc1nnc2n1-c1sc(CCCCCCCOS(C)(=O)=O)cc1C(c1ccccc1Cl)=NC2` [Example 23], for which the IC50 was determined as 900 nM.

Take `Cc1nnc2n1-c1sc(CCCOC(=O)C(C)(C)C)cc1C(c1ccccc1Cl)=NC2` [Example 25]: the IC50 was determined as 900 nM.

With `Cc1nnc2n1-c1sc(CCCCCCCOC(=O)C(C)(C)C)cc1C(c1ccccc1Cl)=NC2` [Example 27], the IC50 was 200 nM.

In the case of `Cc1nnc2n1-c1sc(CCCN3CCCCC3)cc1C(c1ccccc1Cl)=NC2` [Example 45], the IC50 stood at 300 nM.

Consider `Cc1nnc2n1-c1sc(CCCCCCCN3CCN(C)CC3)cc1C(c1ccccc1Cl)=NC2` [Example 49], for which the IC50 came to 1000 nM.

Turning to `CC(=O)OCCCc1cc2c(s1)-n1cnnc1CN=C2c1ccccc1Cl` [Example 50], the IC50 is 600 nM.

In the case of `Cc1nnc2n1-c1sc(CCCN3CCOCC3)cc1C(c1ccccc1)=NC2` [Example 54], the IC50 came out at 1100 nM.

For the molecule `CC(=O)OCCCc1cc2c(s1)-n1c(C)cnc1CN=C2c1ccccc1Cl` [Example 56], the IC50 was found to be 300 nM.

`CC(=O)OCCCCCCCc1cc2c(s1)-n1c(C)cnc1CN=C2c1ccccc1Cl` [Example 58]: the IC50 is < 200 nM.

Regarding `Cc1nnc2n1-c1sc(CCCCCCCNCCN(C)C)cc1C(c1ccccc1Cl)=NC2` [Example 60], the IC50 is 900 nM.

`Cc1nnc2n1-c1sc(CCCn3cncn3)cc1C(c1ccccc1Cl)=NC2` [Example 64]: the IC50 is < 200 nM.

Take `CCN(CC)CCCc1cc2c(s1)-n1c(C)nnc1CN=C2c1ccccc1Cl` [Example 71]: the IC50 came out at 900 nM.

For `Cc1nnc2n1-c1sc(CCCNCCN3CCOCC3)cc1C(c1ccccc1Cl)=NC2` [Example 75], the IC50 came out at 1900 nM.

With `Cc1nnc2n1-c1sc(CCCO)cc1C(c1ccccc1Cl)NC2` (stereo not shown) [Example 98], the IC50 turned out to be 2300 nM.

As to `Cc1nnc2n1-c1ccc(Cl)cc1C(c1ccccc1Cl)=NC2` [Triazolam, triazolam, reference compound], the IC50 amounted to 9000 nM.

The series is the same for the next values; noted with them: Table A, PAF 5×10^-8 M, human thrombocyte-rich plasma, read-out: IC50 (inhibition of blood platelets).
For `Cc1nnc2n1-c1ccc(Cl)cc1C(c1ccccc1)=NC2` [Alprazolam, alprazolam, reference compound], the IC50 was 14000 nM.

System in the next series: not given
Test: not given
To be noted: commercially available tranquillisers or hypnotics; cited from earlier work.
With `Cc1nnc2n1-c1ccc(Cl)cc1C(c1ccccc1Cl)=NC2` [Triazolam, triazolam, reference compound], the “sedative effect of known benzodiazepines” value is reported as “marked sedative effect”.
